Experimental data: publication PMC12410356 (International Journal for Parasitology: Drugs and Drug …, 2025)
Read-outs that look alike come from different tables or passages of the source.

Key:
[1] = tested on: E. multilocularis metacestode vesicles; details: PGI release after five days, cited from earlier work
[2] = tested on: Reuber rat hepatoma (RH) cells; details: cited from earlier work
[3] = tested on: E. multilocularis GL cells; assay: Germinal layer cell viability assay (CellTiter-Glo); type: cell-based, Echinococcus multilocularis; details: for effect on GL cell viability (in words): 80 to 0.31 μM, 5 days; for IC50: Echinococcus multilocularis, 120 h, 5 days incubation, microaerobic, mean ± SD of three independent experiments
Method: The isolation of GL cells was conducted according to ([Kaethner et al., 2023]). Briefly, conditioned DMEM (cDMEM) was prepared prior to isolation. For the preparation of cDMEM, 1 × 10^6 RH cells and 10 × 10^6 RH cells incubated in DMEM supplemented with 10 % FBS, penicillin (100 U/mL), streptomycin (100 μg/mL) and tetracycline (5 μg/mL) for six or four days, respectively, at 37 °C under a humid, 5 % CO2 atmosphere. The supernatant of each was mixed 1:1 and sterile filtrated, resulting in cDMEM. Metacestode vesicles of at least 6 months of age were washed with PBS, incubated in distilled H2O for 2.5 min and subsequently mechanically disrupted. The resulting pellet was resuspended in 7 vol of pre-warmed 0.05 % Trypsin/0.02 % EDTA and incubated at 37 °C for 30 min. GL cells were extracted from the laminated layer by vigorous shaking followed by filtration through a 30 μm mesh (Sefar AG, Heiden, Switzerland) and separated from calcareous corpuscles by short centrifugation at 50×g for 30 s at RT. The isolated cells were centrifuged for 10 min at 600×g and RT and the pellet was resuspended in cDMEM. The cell suspension was diluted 1:100 in PBS to measure the OD600. An OD600 value of 0.1 of this dilution was defined as one arbitrary unit (AU) per μL of the undiluted cell suspension corresponding to 0.97 ± 0.11 μg of total protein for the GL cells as measured via Pierce™ bicinchoninic acid (BCA) Protein Assay Kit according to the manufacturer's protocol (Fisher Scientific AG, Reinach, Switzerland). 1′000 AU per 5 mL of cDMEM were cultured at 37 °C overnight under a humid nitrogen atmosphere. The next day, 2′000 AU of GL cells were combined and further cultured for 3 h at 37 °C under a humid nitrogen atmosphere before they were used for further experiments.
To assess effects of compounds on the cell viability of isolated E. multilocularis GL cells, the protocol was applied as previously described ([Kaethner et al., 2023]). In short, 15 AU of GL cells were distributed into each well of a black 384-well plate. Compounds dissolved in DMSO (alexidine, carbendazim, ESI-09, MMV1581545 and oxfendazole) were added to final concentrations ranging from 80 to 0.31 μM (1:2 serial dilution) and the cells were cultured for 5 days at 37 °C under a humid, microaerobic atmosphere (85 % N2, 10 % CO2, 5 % O2). DMSO with the respective concentration was used as a solvent control. Viability was measured using the CellTiter-Glo® kit. Luminescence was measured using a HIDEX Sense microplate reader. Measurements were done in quadruplicates and represented as relative viability of the DMSO controls. IC50 values were calculated in R applying the five parameter logistic model for three independent experiments ([Ritler et al., 2020]).

[4] = tested on: Reuber rat hepatoma (RH) cells; assay: Mammalian cell toxicity, resazurin assay; type: cell-based; details: for toxicity against mammalian cell line (in words): RH cells counter-screen; for IC50: 5 days incubation, mean ± SD
Method: Mammalian cell toxicity on RH cells was measured as described in [Rufener et al. (2018)] with few alterations. Briefly, confluent (50′000 cells/well) and pre-confluent (5′000 cells/well) were seeded into 96-well plates in DMEM supplemented with 10 % FBS, penicillin (100 U/mL), streptomycin (100 μg/mL) and tetracycline (5 μg/mL) and incubated at 37 °C under a humid, 5 % CO2 atmosphere for 24 h and 5 h respectively. Alexidine, ESI-09 and MMV1581545 were added to final concentrations ranging from 120 to 0.49 μM (1:3 serial dilution) to each well and then cells were incubated at 37 °C under a humid, 5 % CO2 atmosphere for 5 days. To measure viability, the medium was removed, 180 μL of PBS was added to the cells and resazurin was added to each well to a final concentration of 10 mg/L. The cells were then allowed to process the resazurin at RT for 1 h. Fluorescence was measured on a HIDEX Sense microplate reader. Measurements were performed in triplicates and IC50 values were calculated in R using the three parameter Weibull type 1 model for three independent experiments ([Ritler et al., 2020]).

[5] = tested on: E. multilocularis metacestode vesicles; assay: Metacestode vesicle viability assay (ATP, CellTiter-Glo); type: cell-based, Echinococcus multilocularis; details: Echinococcus multilocularis, 288 h, 10 μM, 12 days, read-out: Viability d12 (relative viability)
Method: Viability was assessed after 12 days using the same metacestode vesicles as for the PGI release assay. Triton X-100 was added to each well to a final concentration of 0.1 %. Subsequently the metacestode vesicles were broken mechanically and 50 μL of the supernatant was mixed with 50 μL of CellTiter-Glo® buffer (Promega, Dübendorf, Switzerland). Measurements were performed on a HIDEX Sense microplate reader.

[6] = tested on: E. multilocularis metacestode vesicles; assay: Phosphoglucose isomerase (PGI) release assay (damage-marker release) on metacestode vesicles; type: cell-based, Echinococcus multilocularis; details: 10 μM; for PGI d5 (relative PGI release): 5 days; for PGI d12 (relative PGI release): 12 days
[7] = tested on: E. multilocularis GL cells; design: method as in Stadelmann et al., 2016; details: ref Stadelmann et al., 2016; cited from earlier work
[8] = tested on: E. multilocularis GL cells; assay: Seahorse mito cell stress test, oxygen consumption rate; type: cell-based, Echinococcus multilocularis; details: titration in GL cells
Method: To measure mitochondrial respiration in E. multilocularis GL cells, Seahorse “mito cell stress test” was performed according to the manual for Seahorse XFp Extracellular Flux Analyzer (Agilent Technologies, Basel, Switzerland) with some adaptations ([Gu et al., 2021]; [Rufener et al., 2018]). Seahorse XFp 8-well plates were hydrated and incubated together with Seahorse XF calibrant solution at 37 °C in a non-CO2 incubator overnight the day before the actual experiment. […] Oligomycin was used at a final concentration of 1.5 μM. […] The experiment was repeated three times independently with two technical replicates.

HUVEC cell line = tested on: HUVEC cell line; design: method as in Mamouei et al., 2018; details: at 15 μM; ref Mamouei et al., 2018; cited from earlier work
[9] = confluent, ref Rufener et al., 2018, read-out: IC50 confluent RH cells
[10] = pre-confluent, ref Rufener et al., 2018, read-out: IC50 pre-confluent RH cells
[11] = Rattus norvegicus, 120 h, confluent, read-out: IC50 confluent RH cells
[12] = Rattus norvegicus, 120 h, pre-confluent, read-out: IC50 pre-confluent RH cells
[13] = confirmation screen, triplicates, mean
[14] = overview screen, singlets, relative to DMSO control
[15] = overview screen, singlets, relative to 0.1 % Triton X-100, DMSO subtracted

For `CC(C)(C)[C@H]1CC[C@H](CC2=C(O)C(=O)c3ccccc3C2=O)CC1` [buparvaquone], which IC50 ([1]; ref Rufener et al., 2018) is on record?
Its IC50 is 2.87 ± 1.45 µM.

And the IC50 [2, 9]?
Its IC50 is 17.4 ± 2.09 µM.

And the IC50 [2, 10]?
Its IC50 is 8.47 ± 3.89 µM.

What does the source list for `Cc1cc(O)c2c(c1)C(=O)c1c(I)c(C)c(I)c(O)c1C2=O` [MMV1581545]?
effect on GL cell viability (in words) [3]: highly effective; IC50 [3]: 7.89 ± 1.43 µM; toxicity against mammalian cell line (in words) [4]: moderate toxicity; IC50 [4, 11]: 21.3 ± 4.39 µM; IC50 [4, 12]: 13.8 ± 1.09 µM; IC50 ([4]; pre-confluent, read-out: IC50 pre-confluent RH cells): 14.7 ± 2.09 µM; viability at 10 µM [5, 13]: 19.1%; viability at 10 µM [5, 14]: 16.4%; PGI d5 (relative PGI release) [6, 13]: 10.14%; PGI d12 (relative PGI release) [6, 13]: 30.09%; PGI d5 (relative PGI release) [6, 15]: 18.0887%; PGI d12 (relative PGI release) [6, 15]: 27.8991%

With `Cc1[nH]c2cc(F)cc(F)c2c(=O)c1-c1ccc(Oc2ccc(OC(F)(F)F)cc2)cc1` [ELQ-400] as the compound, how does the IC50 ([1]; ref Rufener et al., 2018) read?
The IC50 was 0.02 ± 0.01 µM.

What about the IC50 [2, 9] of the same compound?
The IC50 was 2.07 ± 1.67 µM.

And the IC50 [2, 10]?
The IC50 was 0.25 ± 0.11 µM.

For `O=C(Nc1cccc(C(F)(F)F)c1)c1cc(Cl)ccc1O` [MMV665807], which IC50 ([1]; ref Stadelmann et al., 2016) is on record?
The IC50 was 1.2 ± 1.6 µM.

And the IC50 ([2]; confluent, ref Stadelmann et al., 2016, read-out: IC50 confluent RH cells)?
The IC50 was 20.5 ± 0.13 µM.

And the IC50 ([2]; pre-confluent, ref Stadelmann et al., 2016, read-out: IC50 pre-confluent RH cells)?
The IC50 was 4.8 ± 0.59 µM.

What about the IC50 [7] of the same compound?
The IC50 was 0.6 ± 0.37 µM.

With `N#CC(C#N)=NNc1ccc(OC(F)(F)F)cc1` [FCCP] as the compound, how does the “optimal (maximal) uncoupling concentration” value [8] read?
Its value is 0.4 µM.

For `CCCCC(CC)CNC(=N)NC(=N)NCCCCCCNC(=N)NC(=N)NCC(CC)CCCC` (stereo not drawn) [alexidine, reference compound], which “toxicity in the HUVEC cell line (in words)” value (HUVEC cell line) is on record?
Its value is “severe toxicity”.

What about the “effect on GL cell viability (in words)” value [3] of the same compound?
Its value is “highly effective”.

And the IC50 [3]?
Its IC50 is 10.7 ± 1.13 µM.

And the “toxicity against mammalian cell line (in words)” value [4]?
The value was “highly toxic”.

What about the IC50 [4, 11] of the same compound?
The IC50 was 5.97 ± 4.89 µM.

What about the IC50 [4, 12] of the same compound?
Its IC50 is 2.8 ± 1.33 µM.

And the viability at 10 µM [5, 13]?
The viability at 10 µM was 34.4 ± 0.9%.

And the viability at 10 µM [5, 14]?
Its viability at 10 µM is 4.93%.

What about the “PGI d5 (relative PGI release)” value [6, 13] of the same compound?
The value was 32.36%.

What about the “PGI d12 (relative PGI release)” value [6, 13] of the same compound?
The value was 76.1 ± 3.2%.

What about the “PGI d12 (relative PGI release)” value ([6]; confirmation screen, triplicates, mean, listed as MMV396785) of the same compound?
The value was 76.16%.

And the “PGI d5 (relative PGI release)” value [6, 15]?
The value was 68.8052%.

What about the “PGI d12 (relative PGI release)” value [6, 15] of the same compound?
Its value is 92.491%.
